In the experiment the test system is P388 leukemia ip, CD2F1 mice, survival T/C. Put plainly: NCI In Vivo Anticancer Drug Screen. Data for tumor model P388 Leukemia (intraperitoneal) in CD2F1 (CDF1) mice. The following applies: endpoint: median survival time, higher = longer survival. In a few lines:
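Mice carrying the transplanted tumor received test compound or vehicle. Survival was recorded in each group, and the value is the treated-group measurement divided by that of the vehicle-treated control group.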

The mark [1] stands for this setting: dose: 12.5 mg/kg/injection, schedule: Q01DX009 (ip), vehicle: saline with Tween-80.
[2] abbreviates: dose: 25.0 mg/kg/injection, schedule: Q01DX009 (ip), vehicle: saline with Tween-80.
Setting [3] is: dose: 50.0 mg/kg/injection, schedule: Q01DX009 (ip), vehicle: saline with Tween-80.
Setting [4] is: dose: 50.0 mg/kg/injection, schedule: Q01DX009 (ip), vehicle: saline.
[5] abbreviates: dose: 100.0 mg/kg/injection, schedule: Q01DX009 (ip), vehicle: saline.
[6] abbreviates: dose: 200.0 mg/kg/injection, schedule: Q01DX009 (ip), vehicle: saline.
[7] abbreviates: dose: 50.0 mg/kg/injection, schedule: Q01DX005 (ip), vehicle: saline with Tween-80.
[8] abbreviates: dose: 100.0 mg/kg/injection, schedule: Q01DX005 (ip), vehicle: saline with Tween-80.
Setting [9] is: dose: 200.0 mg/kg/injection, schedule: Q01DX005 (ip), vehicle: saline with Tween-80.
[10] abbreviates: dose: 50.0 mg/kg/injection, schedule: Q01DX005 (ip), vehicle: Klucel (hydroxypropylcellulose) (HPC).
The mark [11] stands for this setting: dose: 100.0 mg/kg/injection, schedule: Q01DX005 (ip), vehicle: Klucel (hydroxypropylcellulose) (HPC).
The mark [12] stands for this setting: dose: 200.0 mg/kg/injection, schedule: Q01DX005 (ip), vehicle: Klucel (hydroxypropylcellulose) (HPC).
Setting [13] is: dose: 60.0 mg/kg/injection, schedule: Q01DX005 (ip), vehicle: Klucel (hydroxypropylcellulose) (HPC).
The mark [14] stands for this setting: dose: 120.0 mg/kg/injection, schedule: Q01DX005 (ip), vehicle: Klucel (hydroxypropylcellulose) (HPC).
The mark [15] stands for this setting: dose: 240.0 mg/kg/injection, schedule: Q01DX005 (ip), vehicle: Klucel (hydroxypropylcellulose) (HPC).
The mark [16] stands for this setting: dose: 6.25 mg/kg/injection, schedule: Q01DX005 (ip), vehicle: saline with Tween-80.
Setting [17] is: dose: 12.5 mg/kg/injection, schedule: Q01DX005 (ip), vehicle: saline with Tween-80.
[18] abbreviates: dose: 15.0 mg/kg/injection, schedule: Q01DX005 (ip), vehicle: saline.
Where [19] appears, read: dose: 30.0 mg/kg/injection, schedule: Q01DX005 (ip), vehicle: saline.

Several values for one entry are separate records, joined by “and”; a condition that tells them apart may be missing. Equal entries are not always repeated. Inconclusive results and toxic doses are left out.

In the case of `c1cc2ccc1CSCCCSCc1ccc(cc1)CSCCCSC2`, the T/C is 100 % of control (dose: 25.0 mg/kg/injection, schedule: Q01DX009 (ip), vehicle: suspension in saline); 92 % of control (dose: 50.0 mg/kg/injection, schedule: Q01DX009 (ip), vehicle: suspension in saline); 98 % of control (dose: 100.0 mg/kg/injection, schedule: Q01DX009 (ip), vehicle: suspension in saline).

`C=CC(=O)OC1CC(O)C2(C)CC3C(=C)C(=O)OC3CC(C)C12` (configuration not stated): the T/C reads like this: (dose: 100.0 mg/kg/injection, schedule: Q04DX002 (ip), vehicle: saline with Tween-80) 107 % of control; (dose: 200.0 mg/kg/injection, schedule: Q04DX002 (ip), vehicle: saline with Tween-80) 110 % of control; (dose: 400.0 mg/kg/injection, schedule: Q04DX002 (ip), vehicle: saline with Tween-80) 109 % of control.

Consider `Cc1cc2nccc(/C=C/c3ccc(N(C)C)cc3)c2cc1C`, for which the T/C reads like this: under setting [1], 102 % of control; under setting [2], 110 % of control; under setting [3], 92 % of control.

Take `C=C1C(=O)C2=CC1CCC(=O)C1(C)CCC(OC(C)=O)C(C)(C)C1CC2O` (configuration not stated): the T/C is, setting by setting: (dose: 7.5 mg/kg/injection, schedule: Q01DX009 (ip), vehicle: Klucel (hydroxypropylcellulose) (HPC)) 105 % of control and 107 % of control; (dose: 15.0 mg/kg/injection, schedule: Q01DX009 (ip), vehicle: Klucel (hydroxypropylcellulose) (HPC)) 110 % of control and 120 % of control and 123 % of control; (dose: 30.0 mg/kg/injection, schedule: Q01DX009 (ip), vehicle: Klucel (hydroxypropylcellulose) (HPC)) 102 % of control and 113 % of control and 114 % of control; (dose: 60.0 mg/kg/injection, schedule: Q01DX009 (ip), vehicle: Klucel (hydroxypropylcellulose) (HPC)) 111 % of control and 124 % of control.

With `Clc1nc2ccccc2[nH]1`, the T/C by setting is: (dose: 25.0 mg/kg/injection, schedule: Q01DX009 (ip), vehicle: saline) 101 % of control; under setting [4], 99 % of control; under setting [5], 95 % of control; under setting [6], 98 % of control.

With `CC(=O)[C-](C)C(C)=O.CC(=O)[C-](C)C(C)=O.CC(=O)[C-](C)C(C)=O.[Ru+3]`, the T/C reads like this: under setting [7], 100 % of control; under setting [8], 113 % of control; under setting [9], 90 % of control.

As for `CC1(C)Oc2ccc3ccc(=O)oc3c2C(O)C1O` (configuration not stated), the T/C runs as follows: under setting [10], 97 % of control; under setting [11], 96 % of control; under setting [12], 92 % of control.

As to `CCOC(=O)C1(O)C(=O)ON=C1c1ccccc1` (configuration not stated), the T/C under setting [10] was 100 % of control, the T/C under setting [11] was 104 % of control and the T/C under setting [12] was 107 % of control.

For the molecule `O=c1[nH]c(=S)[nH]nc1/C=C/C=C/c1ccccc1`, the T/C reads like this: (dose: 100.0 mg/kg/injection, schedule: Q01DX001 (ip), vehicle: saline) 96 % of control; (dose: 200.0 mg/kg/injection, schedule: Q01DX001 (ip), vehicle: saline) 97 % of control; (dose: 400.0 mg/kg/injection, schedule: Q01DX001 (ip), vehicle: saline) 105 % of control.

As for `Fc1cccc(Cl)c1C(Nc1nccs1)Nc1nccs1`, the T/C was 107 % of control under setting [13], 103 % of control under setting [14] and 104 % of control under setting [15].

As for `O=C1c2cccc3cc([N+](=O)[O-])cc(c23)C(=O)N1Cc1cccnc1`, the T/C reads like this: under setting [16], 100 % of control; under setting [17], 96 % of control; (dose: 25.0 mg/kg/injection, schedule: Q01DX005 (ip), vehicle: saline with Tween-80) 92 % of control; under setting [8], 92 % of control; under setting [9], 101 % of control.

On to `O=c1c2ccccc2nc(C(F)(F)F)n1CCc1c[nH]c2ccccc12`, for which the T/C is 93 % of control under setting [10], 92 % of control under setting [11] and 98 % of control under setting [12].

`Cc1c2cnccc2c(C)c2c1c1ccccc1n2CC1CO1` (configuration not stated): the T/C (dose: 6.25 mg/kg/injection, schedule: Q01DX009 (ip), vehicle: saline with Tween-80) is 155 % of control; the T/C (dose: 8.0 mg/kg/injection, schedule: Q01DX009 (ip), vehicle: Klucel (hydroxypropylcellulose) (HPC)) is 111 % of control; the T/C (dose: 11.0 mg/kg/injection, schedule: Q01DX009 (ip), vehicle: saline with Tween-80) was 158 % of control; the T/C under setting [1] is 152 % of control; the T/C (dose: 16.0 mg/kg/injection, schedule: Q04DX003 (ip), vehicle: Klucel (hydroxypropylcellulose) (HPC)) was 122 % of control; the T/C (dose: 16.5 mg/kg/injection, schedule: Q01DX009 (ip), vehicle: saline with Tween-80) was 171 % of control. For the same molecule, the T/C was 160 % of control and 168 % of control under setting [2]; 88 % of control under setting [3]; 159 % of control (dose: 128.0 mg/kg/injection, schedule: Q04DX003 (ip), vehicle: Klucel (hydroxypropylcellulose) (HPC)).

With `NS(=O)(=O)c1cccnc1Nc1ccc(Cl)c(Cl)c1`, the T/C by setting is: under setting [4], 86 % of control; under setting [5], 93 % of control; under setting [6], 101 % of control.

For `CCCCOC(=O)[C@@H]1O[C@H]2OC=C[C@H]21`, the T/C by setting is: under setting [16], 100 % of control; under setting [17], 106 % of control.

For `O=C1c2ccccc2CN(C(=Nc2ccccc2)Nc2ccccc2)c2ccccc21`, the T/C under setting [7] was 90 % of control, the T/C under setting [8] is 91 % of control and the T/C under setting [9] is 102 % of control.

In the case of `O=[N+]([O-])c1ccc(CN2CCN(c3nccs3)CC2)cc1`, the T/C was 101 % of control (dose: 50.0 mg/kg/injection, schedule: Q01DX009 (ip), vehicle: Klucel (hydroxypropylcellulose) (HPC)); 105 % of control (dose: 100.0 mg/kg/injection, schedule: Q01DX009 (ip), vehicle: Klucel (hydroxypropylcellulose) (HPC)); 105 % of control (dose: 200.0 mg/kg/injection, schedule: Q01DX009 (ip), vehicle: Klucel (hydroxypropylcellulose) (HPC)).

Turning to `S=C(N/N=C(\c1ccccc1)c1ccccn1)SCc1ccccc1`, the T/C runs as follows: under setting [3], 99 % of control; (dose: 100.0 mg/kg/injection, schedule: Q01DX009 (ip), vehicle: saline with Tween-80) 90 % of control; (dose: 200.0 mg/kg/injection, schedule: Q01DX009 (ip), vehicle: saline with Tween-80) 97 % of control.

`O=C1CCNC(=O)N1CN1CCc2ccccc2C1`: the T/C runs as follows: under setting [13], 108 % of control; under setting [14], 99 % of control; under setting [15], 108 % of control.

In the case of `O=C(NCC1OC(n2cnc3c(=O)[nH]cnc32)C(O)C1O)c1cccc(S(=O)(=O)F)c1` (configuration not stated), the T/C by setting is: (dose: 50.0 mg/kg/injection, schedule: Q01DX001 (ip), vehicle: saline with Tween-80) 101 % of control; (dose: 100.0 mg/kg/injection, schedule: Q01DX001 (ip), vehicle: saline with Tween-80) 111 % of control; (dose: 200.0 mg/kg/injection, schedule: Q01DX001 (ip), vehicle: saline with Tween-80) 100 % of control.

For `[N-]=[N+]=N/C=C/C(=O)OCCBr`, the T/C by setting is: under setting [18], 97 % of control; under setting [19], 103 % of control; (dose: 60.0 mg/kg/injection, schedule: Q01DX005 (ip), vehicle: saline) 102 % of control and 97 % of control.

Turning to `C[N+]1(C)CCCC(C(=O)c2ccccc2)C1` (configuration not stated), the T/C runs as follows: (dose: 3.75 mg/kg/injection, schedule: Q01DX005 (ip), vehicle: saline) 119 % of control; (dose: 7.5 mg/kg/injection, schedule: Q01DX005 (ip), vehicle: saline) 108 % of control; under setting [18], 103 % of control; under setting [19], 100 % of control and 101 % of control.

Take `CCCCn1ccc(=O)[nH]c1=O`: the T/C is 93 % of control under setting [10], 99 % of control under setting [11] and 101 % of control under setting [12].

Consider `COc1nc(Nc2ccccc2SC)nc(OC)n1`, for which the T/C was 104 % of control under setting [7], 106 % of control under setting [8] and 107 % of control under setting [9].

Values taken from PubChem BioAssay AID330 (DTP/NCI, 2004).
